Where “and” joins values, the source holds several entries; their conditions need not be identical. Equal values may be shown once.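 Following 48 hours of exposure in 96-well plates, responses at five concentrations were used to interpolate endpoints linearly. At the GI50, growth is halved.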 Calls of active or inactive are those of the source. Cut-off read from the data, not from the text of the source: active = GI50 up to about 1.1 µM and inactive = higher. Starred links: 1 amine or outer side, 2 acyl side, 3 side chain; linkers in the order of their positions; H or OH if unused. Positions of bridges follow the written chain, without caps; N, C: chain ends. Non-standard residues stand in square brackets, D forms with d. Residues, ends and D or L forms follow the SMILES beside them. Chains are numbered I, II in the order given. Actinocin(9to1) = Cc1c2oc3c(C)ccc(C(=O)[*:1])c3nc-2c(C(=O)[*:2])c(N)c1=O; NMeV = CN[CH](C(=O)O)C(C)C; Sar = CNCC(=O)O
How the values were obtained:
Test in all cases: DTP human tumour cell line panel, 48 h
HCC 2998 = system: HCC 2998
K562 = system: K562
MDA-N = system: MDA-N
HT-29 = system: HT-29
SW-620 = system: SW-620
MCF7 = system: MCF7
MOLT-4 = system: MOLT-4
LOX IMVI = system: LOX IMVI
T47D = system: T47D
MDA-MB-435 = system: MDA-MB-435
UO-31 = system: UO-31
A549 = system: A549
DU-145 = system: DU-145
CCRF-CEM = system: CCRF-CEM
Malme-3M = system: Malme-3M
SK-MEL-28 = system: SK-MEL-28
NCI/ADR-RES = system: NCI/ADR-RES
NCI-H226 = system: NCI-H226
HCT-15 = system: HCT-15
HL-60 = system: HL-60
ACHN = system: ACHN
SN12C = system: SN12C
KM12 = system: KM12
UACC-62 = system: UACC-62
RPMI-8226 = system: RPMI-8226
PC-3 = system: PC-3
NCI-H460 = system: NCI-H460
OVCAR-5 = system: OVCAR-5
SF-539 = system: SF-539
EKVX = system: EKVX
RXF 393 = system: RXF 393
UACC-257 = system: UACC-257
M14 = system: M14
HCT-116 = system: HCT-116
MDA-MB-231 = system: MDA-MB-231
786-0 = system: 786-0
SNB-19 = system: SNB-19
HOP-62 = system: HOP-62
IGROV-1 = system: IGROV-1
OVCAR-4 = system: OVCAR-4
SF-268 = system: SF-268
SK-MEL-5 = system: SK-MEL-5
NCI-H522 = system: NCI-H522
SNB-75 = system: SNB-75
U-251 = system: U-251
CAKI-1 = system: CAKI-1
COLO 205 = system: COLO 205
A498 = system: A498
SF-295 = system: SF-295
OVCAR-3 = system: OVCAR-3
NCI-H23 = system: NCI-H23
SK-OV-3 = system: SK-OV-3
TK-10 = system: TK-10
OVCAR-8 = system: OVCAR-8
Hs-578T = system: Hs-578T

Question: With `CC(=O)OCC1OC(n2c(-c3ccc(Cl)cc3)ccc(C#N)c2=S)C(OC(C)=O)C(OC(C)=O)C1OC(C)=O` (configuration not stated) as the compound, how does the GI50 (HCC 2998) read?
Answer: The GI50 was > 100000 nM (inactive).

Question: And the GI50 (K562)?
Answer: Its GI50 is > 100000 nM (inactive).

Question: What about the GI50 (MDA-N) of the same compound?
Answer: Its GI50 is > 100000 nM (inactive).

Question: And the GI50 (HT-29)?
Answer: The GI50 was > 100000 nM (inactive).

Question: What about the GI50 (SW-620) of the same compound?
Answer: The GI50 was > 100000 nM (inactive).

Question: What about the GI50 (MCF7) of the same compound?
Answer: Its GI50 is > 100 µM (inactive) and 50.5 µM (inactive).

Question: And the GI50 (MOLT-4)?
Answer: The GI50 was > 100 µM (inactive) and 51.3 µM (inactive).

Question: And the GI50 (LOX IMVI)?
Answer: The GI50 was 54100 nM (inactive).

Question: What about the GI50 (T47D) of the same compound?
Answer: Its GI50 is 30.6 µM (inactive) and 48.9 µM (inactive).

Question: And the GI50 (MDA-MB-435)?
Answer: Its GI50 is 53300 nM (inactive).

Question: What about the GI50 (UO-31) of the same compound?
Answer: The GI50 was 29.6 µM (inactive) and 33.6 µM (inactive).

Question: And the GI50 (A549)?
Answer: The GI50 was 83.9 µM (inactive) and 66.5 µM (inactive).

Question: And the GI50 (DU-145)?
Answer: Its GI50 is 74.8 µM (inactive) and > 77.1 µM (inactive).

Question: What about the GI50 (CCRF-CEM) of the same compound?
Answer: The GI50 was > 100000 nM (inactive).

Question: What about the GI50 (Malme-3M) of the same compound?
Answer: Its GI50 is > 61.1 µM (inactive) and 45 µM (inactive).

Question: What about the GI50 (SK-MEL-28) of the same compound?
Answer: Its GI50 is > 100000 nM (inactive).

Question: What about the GI50 (NCI/ADR-RES) of the same compound?
Answer: The GI50 was 74000 nM (inactive).

Question: What about the GI50 (NCI-H226) of the same compound?
Answer: The GI50 was 27 µM (inactive) and 45.9 µM (inactive).

Question: And the GI50 (HCT-15)?
Answer: Its GI50 is greater than 100000 nM.

Question: And the GI50 (HL-60)?
Answer: The GI50 was > 100000 nM (inactive).

Question: And the GI50 (ACHN)?
Answer: Its GI50 is 68.1 µM (inactive) and 58.5 µM (inactive).

Question: And the GI50 (SN12C)?
Answer: The GI50 was > 100000 nM (inactive).

Question: And the GI50 (KM12)?
Answer: Its GI50 is > 100000 nM (inactive).

Question: What about the GI50 (UACC-62) of the same compound?
Answer: The GI50 was 37.4 µM (inactive) and 31.6 µM (inactive).

Question: And the GI50 (RPMI-8226)?
Answer: Its GI50 is > 100 µM (inactive) and 56 µM (inactive).

Question: What about the GI50 (PC-3) of the same compound?
Answer: The GI50 was > 100 µM (inactive) and 55.5 µM (inactive).

Question: What about the GI50 (NCI-H460) of the same compound?
Answer: The GI50 was > 60.4 µM (inactive) and 55.5 µM (inactive).

Question: And the GI50 (OVCAR-5)?
Answer: The GI50 was > 100000 nM (inactive).

Question: And the GI50 (SF-539)?
Answer: The GI50 was 30.4 µM (inactive) and 39.1 µM (inactive).

Question: What about the GI50 (EKVX) of the same compound?
Answer: Its GI50 is 17.6 µM (inactive) and 15.1 µM (inactive).

Question: And the GI50 (RXF 393)?
Answer: Its GI50 is 20 µM (inactive) and 13.3 µM (inactive).

Question: What about the GI50 (UACC-257) of the same compound?
Answer: Its GI50 is > 100 µM (inactive) and 73.6 µM (inactive).

Question: What about the GI50 (M14) of the same compound?
Answer: The GI50 was 76 µM (inactive) and > 84.7 µM (inactive).

Question: What about the GI50 (HCT-116) of the same compound?
Answer: Its GI50 is 77.4 µM (inactive) and 61.2 µM (inactive).

Question: Which GI50 (MDA-MB-231) does the source give for `Cc1c2oc3c(C)ccc(C(=O)NC4C(=O)NC(Cc5ccc(O)cc5)C(=O)N5CCCC5C(=O)N(C)CC(=O)N(C)C(C(C)C)C(=O)OC4C)c3nc-2c(C(=O)NC2C(=O)NC(Cc3ccc(O)cc3)C(=O)N3CCCC3C(=O)N(C)CC(=O)N(C)C(C(C)C)C(=O)OC2C)c(N)c1=O` (configuration not stated) (I: TYP[Sar][NMeV] / II: TYP[Sar][NMeV]; ester I:1-I:C, II:1-II:C; linker I:N-II:N via Actinocin(9to1); configuration not given here) here?
Answer: The GI50 was 15600 nM (inactive).

Question: What about the GI50 (HCC 2998) of the same compound?
Answer: Its GI50 is > 40200 nM (inactive).

Question: And the GI50 (K562)?
Answer: Its GI50 is 354 nM (active).

Question: What about the GI50 (MDA-N) of the same compound?
Answer: Its GI50 is 535 nM (active).

Question: And the GI50 (786-0)?
Answer: The GI50 was 368 nM (active).

Question: And the GI50 (HT-29)?
Answer: The GI50 was 755 nM (active).

Question: What about the GI50 (SW-620) of the same compound?
Answer: The GI50 was 330 nM (active).

Question: And the GI50 (MCF7)?
Answer: The GI50 was 80.5 nM (active).

Question: And the GI50 (MOLT-4)?
Answer: The GI50 was 178 nM (active).

Question: What about the GI50 (LOX IMVI) of the same compound?
Answer: The GI50 was 85.9 nM (active).

Question: What about the GI50 (T47D) of the same compound?
Answer: Its GI50 is 1.36 µM (inactive).

Question: What about the GI50 (SNB-19) of the same compound?
Answer: Its GI50 is 449 nM (active).

Question: And the GI50 (MDA-MB-435)?
Answer: The GI50 was 1930 nM (inactive).

Question: And the GI50 (HOP-62)?
Answer: Its GI50 is 2330 nM (inactive).

Question: And the GI50 (IGROV-1)?
Answer: Its GI50 is 149 nM (active).

Question: What about the GI50 (UO-31) of the same compound?
Answer: Its GI50 is 17.9 µM (inactive).

Question: What about the GI50 (A549) of the same compound?
Answer: The GI50 was 635 nM (active).

Question: What about the GI50 (DU-145) of the same compound?
Answer: The GI50 was 1.43 µM (inactive).

Question: What about the GI50 (OVCAR-4) of the same compound?
Answer: The GI50 was 1140 nM (inactive).

Question: What about the GI50 (Malme-3M) of the same compound?
Answer: The GI50 was 392 nM (active).

Question: What about the GI50 (SK-MEL-28) of the same compound?
Answer: The GI50 was 365 nM (active).

Question: And the GI50 (SF-268)?
Answer: Its GI50 is 160 nM (active).

Question: And the GI50 (SK-MEL-5)?
Answer: Its GI50 is 163 nM (active).

Question: And the GI50 (NCI-H522)?
Answer: Its GI50 is 877 nM (active).

Question: What about the GI50 (NCI/ADR-RES) of the same compound?
Answer: The GI50 was > 94000 nM (inactive).

Question: What about the GI50 (SNB-75) of the same compound?
Answer: Its GI50 is 139 nM (active).

Question: And the GI50 (NCI-H226)?
Answer: Its GI50 is 957 nM (active).

Question: And the GI50 (U-251)?
Answer: The GI50 was 374 nM (active).

Question: What about the GI50 (HCT-15) of the same compound?
Answer: The GI50 was 8650 nM.

Question: And the GI50 (ACHN)?
Answer: The GI50 was 397 nM (active).

Question: And the GI50 (SN12C)?
Answer: Its GI50 is 1480 nM (inactive).

Question: What about the GI50 (KM12) of the same compound?
Answer: Its GI50 is 577 nM (active).

Question: And the GI50 (UACC-62)?
Answer: Its GI50 is 1.14 µM (inactive).

Question: What about the GI50 (RPMI-8226) of the same compound?
Answer: Its GI50 is 282 nM (active).

Question: What about the GI50 (PC-3) of the same compound?
Answer: The GI50 was 4.11 µM (inactive).

Question: And the GI50 (CAKI-1)?
Answer: The GI50 was 3570 nM (inactive).

Question: What about the GI50 (COLO 205) of the same compound?
Answer: Its GI50 is 403 nM (active).

Question: And the GI50 (A498)?
Answer: The GI50 was 16000 nM (inactive).

Question: And the GI50 (NCI-H460)?
Answer: Its GI50 is 215 nM (active).

Question: What about the GI50 (SF-295) of the same compound?
Answer: Its GI50 is 420 nM (active).

Question: What about the GI50 (OVCAR-5) of the same compound?
Answer: The GI50 was 7660 nM (inactive).

Question: And the GI50 (OVCAR-3)?
Answer: The GI50 was 1630 nM (inactive).

Question: What about the GI50 (NCI-H23) of the same compound?
Answer: The GI50 was 494 nM (active).

Question: And the GI50 (SK-OV-3)?
Answer: Its GI50 is 10500 nM (inactive).

Question: And the GI50 (SF-539)?
Answer: Its GI50 is 726 nM (active).

Question: And the GI50 (EKVX)?
Answer: The GI50 was 70.5 µM (inactive).

Question: What about the GI50 (TK-10) of the same compound?
Answer: Its GI50 is 13700 nM (inactive).

Question: What about the GI50 (RXF 393) of the same compound?
Answer: Its GI50 is 406 nM (active).

Question: And the GI50 (OVCAR-8)?
Answer: Its GI50 is 800 nM (active).

Question: What about the GI50 (UACC-257) of the same compound?
Answer: Its GI50 is 1.56 µM (inactive).

Question: What about the GI50 (M14) of the same compound?
Answer: The GI50 was 2.55 µM (inactive).

Question: And the GI50 (HCT-116)?
Answer: Its GI50 is 110 nM (active).

Question: And the GI50 (Hs-578T)?
Answer: Its GI50 is 16600 nM (inactive).

From ChEMBL document CHEMBL1201862, “PubChem BioAssay data set” (2004)
